From paper PMC6131501, “Urate transporter inhibitor lesinurad is a selective peroxisome proliferator-activated receptor gamma modulator (sPPARγM) in vitro” (Scientific Reports, 2018)
Entries after “also recorded” stand apart in the source; their conditions may differ. Like-named read-outs stand apart in the source and are kept apart here. Blank lines part the entries; values can stand above or below the molecule they belong to. No end group written: not given here. *: point of attachment. Biotin = O=C1N[C@H]2[C@H](CS[C@H]2CCCCC(=O)*)N1

Tests used:
PPARα [1] = conditions: cited from earlier work
PPARγ [2] = target: T1, PPARγ (Homo sapiens, UniProt P37231); test: Gal4 hybrid reporter gene assay PPARγ; format: cell-based; conditions: Gal4 hybrid reporter, HEK293T, 12-14 h; mean ± SEM, at least three experiments
T1 construct: expressed in transfected cells; host or cells: HEK293T
T1 sequence (P37231 238-503 limits assumed): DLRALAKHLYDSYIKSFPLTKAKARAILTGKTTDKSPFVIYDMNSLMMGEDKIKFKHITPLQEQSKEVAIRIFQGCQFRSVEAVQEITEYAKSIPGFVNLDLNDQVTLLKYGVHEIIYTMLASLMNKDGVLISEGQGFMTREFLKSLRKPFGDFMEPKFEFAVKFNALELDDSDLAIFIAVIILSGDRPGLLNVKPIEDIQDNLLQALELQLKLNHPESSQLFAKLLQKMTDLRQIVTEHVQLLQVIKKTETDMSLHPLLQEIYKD
From the text: (§1) These in vitro test systems are based on a constitutively expressed hybrid receptor composed of the ligand binding domain of the respective human nuclear receptor and the DNA binding domain of the yeast receptor Gal4. A Gal4-inducible firefly luciferase serves as reporter gene and a constitutively expressed renilla luciferase is used for normalization of transfection efficacy and internal toxicity control[18],[19]. […] The Gal4-fusion receptor plasmids pFA-CMV-hPPARα-LBD[50], pFA-CMV-hPPARγ-LBD[50], pFA-CMV-hPPARδ-LBD[50], pFA-CMV-hLXRα-LBD[51], pFA-CMV-hLXRβ-LBD[51], pFA-CMV-hRXRα-LBD[52], pFA-CMV-hRXRβ-LBD[52], pFA-CMV-hRXRγ-LBD[52], pFA-CMV-hRARα-LBD[52], pFA-CMV-hRARβ-LBD[52], pFA-CMV-hRARγ-LBD[52], pFA-CMV-hFXR-LBD[53], pFA-CMV-hVDR-LBD[52], pFA-CMV-hCAR-LBD[52] and pFA-CMV-hPXR-LBD[52] coding for the hinge region and ligand binding domain (LBD) of the canonical isoform of the respective nuclear receptor have been reported previously. pFR-Luc (Stratagene) was used as reporter plasmid and pRL-SV40 (Promega) for normalization of transfection efficiency and cell growth.
(§2) HEK293T cells were grown in DMEM high glucose, supplemented with 10% FCS, sodium pyruvate (1 mM), penicillin (100 U/mL) and streptomycin (100 μg/mL) at 37 °C and 5% CO2. The day before transfection, HEK293T cells were seeded in 96-well plates (3·10^4 cells/well). Before transfection, medium was changed to Opti-MEM without supplements. Transient transfection was carried out using Lipofectamine LTX reagent (Invitrogen) according to the manufacturer’s protocol with pFR-Luc (Stratagene), pRL-SV40 (Promega) and the corresponding Gal4-fusion nuclear receptor plasmid. 5 h after transfection, medium was changed to Opti-MEM supplemented with penicillin (100 U/mL), streptomycin (100 μg/mL), now additionally containing 0.1% DMSO and the respective test compound or 0.1% DMSO alone as untreated control. Each concentration was tested in duplicates and each experiment was repeated independently at least three times. Following overnight (12-14 h) incubation with the test compounds, cells were assayed for luciferase activity using Dual-Glo™ Luciferase Assay System (Promega) according to the manufacturer’s protocol. Luminescence was measured with an Infinite M200 luminometer (Tecan Deutschland GmbH). […] Fold activation was obtained by dividing the mean RLU of a test compound at a respective concentration by the mean RLU of untreated control.

murine PPARγ = conditions: read-out: PPARγ (EC50) literature; cited from earlier work
PPARα [3] = target: T2, PPARα (Homo sapiens, UniProt Q07869); test: Gal4 hybrid reporter gene assay PPARα; format: cell-based; conditions: Gal4 hybrid reporter, HEK293T, 12-14 h; mean ± SEM, at least three experiments
T2 construct: expressed in transfected cells; host or cells: HEK293T
T2 sequence (Q07869 239-466 limits assumed): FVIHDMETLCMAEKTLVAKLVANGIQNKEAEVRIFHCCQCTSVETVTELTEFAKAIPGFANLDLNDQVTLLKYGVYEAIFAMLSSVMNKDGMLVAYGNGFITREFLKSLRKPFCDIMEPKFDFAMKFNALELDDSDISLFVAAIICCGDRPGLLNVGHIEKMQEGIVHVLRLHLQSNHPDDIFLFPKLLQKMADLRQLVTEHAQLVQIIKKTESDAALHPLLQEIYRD
From the text: as §1, §2

PPARγ [4] = conditions: cited from earlier work
3T3-L1 mouse fibroblasts = test system: 3T3-L1 mouse fibroblasts; parameters: method as in PMID 19048458; conditions: cited from earlier work
[5] = test system: adiponectin plasma levels; parameters: method as in PMID 19048458; conditions: in men; cited from earlier work
[6] = parameters: method as in PMID 18274627; conditions: HEK293T cells; cited from earlier work
[7] = test system: PPARγ-regulated genes in 3T3-L1 adipocytes; test: PPARγ target gene quantification in 3T3-L1 adipocytes (qPCR); format: cell-based, murine
Procedure: 3T3-L1 cells were cultured and differentiated as described above. Cells were then lysed using TRIzol reagent (Ambion, Life Technologies, Carlsbad, CA, USA), and mRNA was isolated following the manufacturer’s protocol. DNA contaminations were digested using DNase (DNase I, RNase-free kit; Thermo Scientific, Waltham, MA, USA) and mRNA concentrations were measured with a NanoDrop2000 spectrophotometer (Thermo Scientific, Waltham, MA, USA). Subsequently, reverse transcription was performed using the high capacity RNA-to-cDNA kit (Applied Biosystems, Foster City, CA, USA). Quantitative real-time PCR was performed using specific primers for CD36, […] and CPT1A with a StepOnePlus real-time PCR system (Applied Biosystems, Foster City, CA, USA). Non-POU domain containing octamer binding protein (NonO) was used as reference gene for 3T3-L1. All samples were measured in duplicate and were analyzed using the ΔΔCt method. The following PCR primers were used: Adiponectin: 5′-TGACGACACCAAAAGGGCTC-3′ (fwd) and 5′-CACAAGTTCCCTTGGGTGGA-3′ (rev); CD36: 5′-TGCTGGAGCTGTTATTGGTG-3′ (fwd) and 5′-CATGAGAATGCCTCCAAACA-3′ (rev); FABP4: 5′-AGAAGTGGGAGTGGGCTTTG-3′ (fwd) and 5′-ACTCTCTGACCGGATGGTGA-3′ (rev); GLUT4: 5′-TGAAGAACGGATAGGGAGCAG-3′ (fwd) and 5′-GAAGTGCAAAGGGTGAGTGAG-3′ (rev); NonO: 5′-TGCTCCTGTGCCACCTGGTACTC-3′ (fwd) and 5′-CCGGAGCTGGACGGTTGAATGC-3′ (rev).
Results (expressed as mean ± SEM % relative mRNA expression; n = 3): Adiponectin: untreated (0.1% DMSO): 124 ± 45%; […];

3T3-L1 adipocytes = test: Differentiation of 3T3-L1 adipocytes, Oil Red O staining; format: cell-based, murine; conditions: rosiglitazone 2 μM; lesinurad up to 50 μM
Procedure: For this, 3T3-L1 cells were treated with insulin, dexamethasone and isobutylmethylxanthine (IBMX) to induce their differentiation into mature adipocytes. […] 3T3-L1 cells were subcultured in DMEM containing 10% newborn calf serum in a humidified atmosphere at 37 °C, 5% CO2. Cells were differentiated into adipocytes within 14 days according to the method[54] reported by Zebisch and colleagues. In brief, cells were seeded in 6-well plates ([…]). […] At day 5, medium was changed to contain only insulin for another two days. Cells were then kept for lipid droplet accumulation in basal medium without additions until day 15. […] Differentiation of 3T3-L1 cells to adipocytes was confirmed by Oil Red O staining. For this, cells were washed with PBS and then fixed for 60 min with a formaldehyde solution (4% in PBS). Subsequently, cells were rinsed with 60% isopropanol and incubated with Oil Red O solution (0.3%) for 120 min.

PXR = test system: PXR; parameters: method as in PMID 16565514; conditions: literature value; cited from earlier work
[8] = target: recombinant PPARγ LBD ligand binding domain fused to N-terminal GFP (human); test: AlphaScreen or HTRF; homogeneous time-resolved FRET; 12 nM GFP-PPARγ LBD (acceptor) and 12 nM streptavidin-terbium cryptate with biotinylated coactivator peptide (donor); lesinurad at varying concentrations, 1% DMSO; 25 mM HEPES pH 7.5, 150 mM KF, 5% glycerol, 0.1% CHAPS, 5 mM DTT; 2 h at RT; referenced to recruitment with 1 μM rosiglitazone
Sequence of recombinant PPARγ LBD ligand binding domain fused to N-terminal GFP (human) (P37231 whole entry, the tested form may be a part): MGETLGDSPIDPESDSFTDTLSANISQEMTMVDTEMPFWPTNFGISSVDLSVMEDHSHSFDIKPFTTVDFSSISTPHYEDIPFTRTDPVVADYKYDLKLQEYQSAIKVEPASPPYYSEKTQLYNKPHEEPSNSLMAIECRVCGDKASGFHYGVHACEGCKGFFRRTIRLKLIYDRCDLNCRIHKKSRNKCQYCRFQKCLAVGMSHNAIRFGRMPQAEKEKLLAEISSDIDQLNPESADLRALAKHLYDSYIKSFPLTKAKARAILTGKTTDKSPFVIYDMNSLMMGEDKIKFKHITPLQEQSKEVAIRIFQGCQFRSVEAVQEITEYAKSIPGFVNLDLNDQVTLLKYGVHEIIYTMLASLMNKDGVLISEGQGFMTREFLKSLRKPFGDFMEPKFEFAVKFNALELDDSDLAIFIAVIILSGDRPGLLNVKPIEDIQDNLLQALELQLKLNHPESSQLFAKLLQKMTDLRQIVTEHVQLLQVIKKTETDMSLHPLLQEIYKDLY

EC50 (PPARγ [2]): 49 ± 5 nM
EC50 (PPARα [3]): 99 ± 5 nM
Molecule: CCO[C@@H](Cc1ccc(OCCc2ccc(OS(C)(=O)=O)cc2)cc1)C(=O)O [tesaglitazar]
EC50 (PPARα [1]; hybrid transactivation assay, 40 hours incubation, read-out: PPARα (EC50) literature): 1700 nM
EC50 (murine PPARγ): 250 nM

Molecule: CCc1oc2ccccc2c1C(=O)c1cc(Br)c(O)c(Br)c1 [benzbromarone]
PPARγ literature activity (PPARγ [4]; no precise activity value reported): active[24]***
expression of CD36, adiponectin and FABP4 (aP2) (3T3-L1 mouse fibroblasts): significantly induced
adiponectin plasma levels [5]: enhanced adiponectin plasma levels
expression of lipoprotein lipase (LPL) and acyl-CoA-synthetase [6]: induced

EC50 (PPARγ [2]): 5400 ± 1100 nM
Molecule: CC(=O)NCCOC(=O)[C@H](Oc1cccc(C(F)(F)F)c1)c1ccc(Cl)cc1 [arhalofenate]

Molecule: CN(CCOc1ccc(CC2SC(=O)NC2=O)cc1)c1ccccn1 (centres unmarked) [rosiglitazone]
Adiponectin relative mRNA expression [7]: 455 ± 111%
CD36 relative mRNA expression [7]: 468 ± 8%
FABP4 relative mRNA expression [7]: 338 ± 46%
GLUT4 relative mRNA expression [7]: 695 ± 145%
lipid accumulation during differentiation (Oil Red O staining) (3T3-L1 adipocytes): massive accumulation of lipid droplets; also recorded: massive storage of fat

EC50 (PPARα [3]): 6500 ± 500 nM
Molecule: CC(C)(Oc1ccc(C(=O)c2ccc(Cl)cc2)cc1)C(=O)O [fenofibric acid]

Molecule: O=C(O)[C@H](Oc1cccc(C(F)(F)F)c1)c1ccc(Cl)cc1 [arhalofenic acid]
EC50 (PPARγ [2]): 470 ± 20 nM
EC50 (murine PPARγ): 12000 nM

Molecule: CCOP(=O)(OCC)C(=Cc1cc(C(C)(C)C)c(O)c(C(C)(C)C)c1)P(=O)(OCC)OCC [SR12813]
EC50 (PXR): 140 nM

% recruitment with lesinurad relative to 1 μM rosiglitazone [8]: 59%
EC50 of lesinurad for induced recruitment [8]: 44000 nM
Molecule: Biotin-NLVPDAASKHKQLSELLRGGSGS [CBP derived peptide (biotin-…)]
